{"source": "PubChem BioAssay AID270", "about": "(DTP/NCI, 2004)", "test_system": "BDF1 mice, s.c. Lewis lung carcinoma, T/C %", "assay": "NCI In Vivo Anticancer Drug Screen. Data for tumor model Lewis Lung Carcinoma (subcutaneous) in B6D2F1 (BDF1) mice", "in_short": "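First, mice carry a transplantable tumor. Next, groups receive either compound or vehicle. Finally, survival or tumor dimensions in the dosed animals are divided by the corresponding control figure.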", "note": "Several values for one entry are separate records, joined by “and”; a condition that tells them apart may be missing. Identical values can stand only once. Records with an inconclusive call do not appear."}
{"smiles": "O=P1(NCCCl)OCCCN1CCCl", "note": "(centres undefined)", "values": [{"measurement": "T/C", "setting": "endpoint: mean tumor weight, dose: 12.5 mg/kg/injection, schedule: Q01DX011 (ip), vehicle: saline, higher = larger tumour", "result": "114 % of control"}, {"measurement": "T/C", "setting": "endpoint: mean tumor weight, dose: 25.0 mg/kg/injection, schedule: Q01DX011 (ip), vehicle: saline, higher = larger tumour", "result": "14 % of control"}, {"measurement": "T/C", "setting": "endpoint: mean tumor weight, dose: 50.0 mg/kg/injection, schedule: Q01DX011 (ip), vehicle: saline, higher = larger tumour", "result": "2 % of control"}, {"measurement": "T/C", "setting": "endpoint: median survival time, dose: 25.0 mg/kg/injection, schedule: Q01DX009 (ip), vehicle: Klucel (hydroxypropylcellulose) (HPC), higher = longer survival", "result": "100 % of control"}, {"measurement": "T/C", "setting": "endpoint: median survival time, dose: 50.0 mg/kg/injection, schedule: Q01DX001 (ip), vehicle: saline, higher = longer survival", "result": "106 % of control"}, {"measurement": "T/C", "setting": "endpoint: median survival time, dose: 50.0 mg/kg/injection, schedule: Q01DX009 (ip), vehicle: Klucel (hydroxypropylcellulose) (HPC), higher = longer survival", "result": "150 % of control"}, {"measurement": "T/C", "setting": "endpoint: median survival time, dose: 100.0 mg/kg/injection, schedule: Q01DX001 (ip), vehicle: saline, higher = longer survival", "result": "124 % of control"}, {"measurement": "T/C", "setting": "endpoint: median survival time, dose: 200.0 mg/kg/injection, schedule: Q01DX001 (ip), vehicle: saline, higher = longer survival", "result": "200 % of control and 243 % of control"}, {"measurement": "T/C", "setting": "endpoint: median survival time, dose: 400.0 mg/kg/injection, schedule: Q01DX001 (ip), vehicle: saline, higher = longer survival", "result": "200 % of control and 243 % of control"}, {"measurement": "T/C", "setting": "endpoint: median survival time, dose: 800.0 mg/kg/injection, schedule: Q01DX001 (ip), vehicle: saline, higher = longer survival", "result": "243 % of control"}]}
{"smiles": "C=C(CC(=O)O)C(=O)O", "note": "(tested in a mixture with another compound)", "values": [{"measurement": "T/C", "setting": "endpoint: median survival time, dose: 3.12 mg/kg/injection, schedule: Q01DX009 (ip), vehicle: other, higher = longer survival", "result": "94 % of control"}, {"measurement": "T/C", "setting": "endpoint: median survival time, dose: 6.25 mg/kg/injection, schedule: Q01DX009 (ip), vehicle: other, higher = longer survival", "result": "101 % of control"}, {"measurement": "T/C", "setting": "endpoint: median survival time, dose: 12.5 mg/kg/injection, schedule: Q01DX009 (ip), vehicle: other, higher = longer survival", "result": "103 % of control"}, {"measurement": "T/C", "setting": "endpoint: median survival time, dose: 25.0 mg/kg/injection, schedule: Q01DX009 (ip), vehicle: other, higher = longer survival", "result": "88 % of control"}]}
{"smiles": "CNC1C(OC2C(OC3C(O)C(O)C(N=C(N)N)C(O)C3N=C(N)N)OC(C)C2(O)C=O)OC(CO)C(O)C1O", "note": "(centres undefined)", "values": [{"measurement": "T/C", "setting": "endpoint: median survival time, dose: 50.0 mg/kg/injection, schedule: Q01DX009 (ip), vehicle: water, higher = longer survival", "result": "95 % of control"}, {"measurement": "T/C", "setting": "endpoint: median survival time, dose: 100.0 mg/kg/injection, schedule: Q01DX009 (ip), vehicle: water, higher = longer survival", "result": "102 % of control"}, {"measurement": "T/C", "setting": "endpoint: median survival time, dose: 200.0 mg/kg/injection, schedule: Q01DX009 (ip), vehicle: water, higher = longer survival", "result": "105 % of control"}]}
{"smiles": "CC(C)([NH-])CO.CC(C)([NH-])CO.[Cl][Cd][Cl]", "values": [{"measurement": "T/C", "setting": "endpoint: mean tumor weight, dose: 1.0 mg/kg/injection, schedule: Q01DX011 (ip), vehicle: other, higher = larger tumour", "result": "122 % of control"}, {"measurement": "T/C", "setting": "endpoint: mean tumor weight, dose: 2.0 mg/kg/injection, schedule: Q01DX011 (ip), vehicle: other, higher = larger tumour", "result": "77 % of control"}, {"measurement": "T/C", "setting": "endpoint: mean tumor weight, dose: 4.0 mg/kg/injection, schedule: Q01DX011 (ip), vehicle: other, higher = larger tumour", "result": "75 % of control"}, {"measurement": "T/C", "setting": "endpoint: mean tumor weight, dose: 8.0 mg/kg/injection, schedule: Q01DX011 (ip), vehicle: other, higher = larger tumour", "result": "97 % of control"}]}
{"smiles": "C[C@@H]1C[C@@H]([C@H](O)CC2CC(=O)NC(=O)C2)C(=O)[C@@H](C)C1", "values": [{"measurement": "T/C", "setting": "endpoint: mean tumor weight, dose: 15.0 mg/kg/injection, schedule: Q01DX011 (ip), vehicle: carboxymethylcellulose (CMC), higher = larger tumour", "result": "62 % of control and 81 % of control"}, {"measurement": "T/C", "setting": "endpoint: mean tumor weight, dose: 30.0 mg/kg/injection, schedule: Q01DX011 (ip), vehicle: carboxymethylcellulose (CMC), higher = larger tumour", "result": "50 % of control and 57 % of control"}]}
{"smiles": "CC(=O)OC(C)C1C2=C(C(=O)CC1(C)O)C(=O)c1c(ccc(-c3ccc4c(c3O)C(=O)C3=C(C4=O)C(C(C)OC(C)=O)C(C)(O)CC3=O)c1O)C2=O", "note": "(centres undefined)", "values": [{"measurement": "T/C", "setting": "endpoint: median survival time, dose: 0.1 mg/kg/injection, schedule: Q01DX009 (ip), vehicle: saline + alcohol, higher = longer survival", "result": "112 % of control"}, {"measurement": "T/C", "setting": "endpoint: median survival time, dose: 0.38 mg/kg/injection, schedule: Q01DX009 (ip), vehicle: saline + alcohol, higher = longer survival", "result": "122 % of control"}, {"measurement": "T/C", "setting": "endpoint: median survival time, dose: 0.75 mg/kg/injection, schedule: Q01DX009 (ip), vehicle: saline + alcohol, higher = longer survival", "result": "119 % of control"}, {"measurement": "T/C", "setting": "endpoint: median survival time, dose: 1.5 mg/kg/injection, schedule: Q01DX009 (ip), vehicle: saline + alcohol, higher = longer survival", "result": "97 % of control"}, {"measurement": "T/C", "setting": "endpoint: median survival time, dose: 1.56 mg/kg/injection, schedule: Q01DX009 (ip), vehicle: saline with Tween-80, higher = longer survival", "result": "101 % of control"}]}
{"smiles": "CC(CCc1cccc2ccccc12)(C(=O)O)C(=O)O", "values": [{"measurement": "T/C", "setting": "endpoint: mean tumor weight, dose: 50.0 mg/kg/injection, schedule: Q01DX011 (ip), vehicle: acid diluted with saline, higher = larger tumour", "result": "72 % of control"}, {"measurement": "T/C", "setting": "endpoint: mean tumor weight, dose: 63.0 mg/kg/injection, schedule: Q01DX011 (ip), vehicle: carboxymethylcellulose (CMC), higher = larger tumour", "result": "101 % of control"}, {"measurement": "T/C", "setting": "endpoint: mean tumor weight, dose: 100.0 mg/kg/injection, schedule: Q01DX011 (ip), vehicle: acid diluted with saline, higher = larger tumour", "result": "85 % of control"}, {"measurement": "T/C", "setting": "endpoint: mean tumor weight, dose: 200.0 mg/kg/injection, schedule: Q01DX011 (ip), vehicle: acid diluted with saline, higher = larger tumour", "result": "91 % of control"}, {"measurement": "T/C", "setting": "endpoint: mean tumor weight, dose: 400.0 mg/kg/injection, schedule: Q01DX011 (ip), vehicle: acid diluted with saline, higher = larger tumour", "result": "59 % of control"}]}
{"smiles": "CN1CC(=O)N=C1N", "values": [{"measurement": "T/C", "setting": "endpoint: mean tumor weight, dose: 31.3 mg/kg/injection, schedule: Q01DX011 (ip), vehicle: saline, higher = larger tumour", "result": "116 % of control"}, {"measurement": "T/C", "setting": "endpoint: mean tumor weight, dose: 62.5 mg/kg/injection, schedule: Q01DX011 (ip), vehicle: saline, higher = larger tumour", "result": "150 % of control"}, {"measurement": "T/C", "setting": "endpoint: mean tumor weight, dose: 125.0 mg/kg/injection, schedule: Q01DX011 (ip), vehicle: saline, higher = larger tumour", "result": "119 % of control"}, {"measurement": "T/C", "setting": "endpoint: mean tumor weight, dose: 250.0 mg/kg/injection, schedule: Q01DX011 (ip), vehicle: saline, higher = larger tumour", "result": "105 % of control"}]}
{"smiles": "CCOc1ccc(Nc2ncnc3nc[nH]c23)cc1CN(CCCl)CCCl", "values": [{"measurement": "T/C", "setting": "endpoint: mean tumor weight, dose: 1.2 mg/kg/injection, schedule: Q01DX011 (ip), vehicle: other, higher = larger tumour", "result": "54 % of control"}, {"measurement": "T/C", "setting": "endpoint: mean tumor weight, dose: 2.3 mg/kg/injection, schedule: Q01DX011 (ip), vehicle: other, higher = larger tumour", "result": "46 % of control"}]}
